According to PMC1500811, “Neofunctionalization in Vertebrates: The Example of Retinoic Acid Receptors” (PLoS Genetics, 2006):
Blank lines part the entries; values can stand above or below the compound they belong to.

Columns and labels:
AmphiRAR [1] = target: T1, AmphiRAR (Branchiostoma floridae, UniProt Q8MX80); assay: limited trypsin proteolysis of in vitro-translated receptor; assay type: binding; set-up: LBD from Ser154 fused to Gal4 residues 1-147; in vitro translated for proteolysis; conditions: ligand 10^-4 to 10^-5 M, room temperature
PmRAR [2] = target: T2, PmRAR (Polyandrocarpa misakiensis, UniProt K7ZRU3); assay: as above; assay type: binding; set-up: gene Pm-RAR; LBD fused to Gal4 residues 1-147; in vitro translated for proteolysis; conditions: ligand 10^-4 to 10^-5 M, room temperature
T2 sequence (K7ZRU3 208-503 limits assumed): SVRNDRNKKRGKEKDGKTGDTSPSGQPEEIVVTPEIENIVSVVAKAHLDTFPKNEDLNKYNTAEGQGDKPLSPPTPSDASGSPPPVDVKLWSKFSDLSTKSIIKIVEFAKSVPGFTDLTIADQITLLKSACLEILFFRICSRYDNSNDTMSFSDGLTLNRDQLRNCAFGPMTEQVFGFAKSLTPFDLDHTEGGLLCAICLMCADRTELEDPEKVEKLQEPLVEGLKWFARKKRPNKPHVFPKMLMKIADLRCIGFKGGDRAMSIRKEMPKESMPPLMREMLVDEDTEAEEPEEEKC

xRARβ = test system: T3, xRARβ; assay: Gal4-RAR(LBD) luciferase transactivation in Cos-1 cells; assay type: cell-based, Xenopus laevis; conditions: agonist; one collective range given for all chordate RARs
T3 construct: gene rarb; LBD fused to Gal4 residues 1-147; in vitro translated for proteolysis

AncRAR = test system: T4, AncRAR; assay: as above; assay type: cell-based, synthetic construct; conditions: agonist; one collective range given for all chordate RARs
T4 construct: maximum-likelihood reconstructed LBD fused to Gal4 residues 1-147
Source text: Gal4-RAR(LBD) luciferase transactivation in Cos-1 cells on AncRAR | all the chordate RARs, including the reconstructed AncRAR, are able to transactivate in a dose-dependent manner

xRARα = target: T5, xRARα (Xenopus laevis, UniProt P51126); assay: as above; assay type: cell-based; conditions: agonist; one collective range given for all chordate RARs
T5 construct: gene rara; LBD fused to Gal4 residues 1-147; in vitro translated for proteolysis
T5 sequence (P51126 155-458 limits assumed): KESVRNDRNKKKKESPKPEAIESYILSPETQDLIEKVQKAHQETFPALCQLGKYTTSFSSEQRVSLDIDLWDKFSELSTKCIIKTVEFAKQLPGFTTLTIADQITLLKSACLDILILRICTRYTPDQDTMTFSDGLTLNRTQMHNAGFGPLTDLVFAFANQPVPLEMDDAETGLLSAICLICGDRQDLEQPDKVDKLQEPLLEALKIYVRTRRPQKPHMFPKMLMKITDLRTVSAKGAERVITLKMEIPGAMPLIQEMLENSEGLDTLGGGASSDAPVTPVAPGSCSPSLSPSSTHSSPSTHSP

zfRARγ = test system: T6, zfRARγ; assay: as above; assay type: cell-based, Danio rerio; conditions: agonist; one collective range given for all chordate RARs
T6 construct: gene rarga; LBD fused to Gal4 residues 1-147; in vitro translated for proteolysis

xRARγ = target: T7, xRARγ (Xenopus laevis, UniProt P28699); assay: as above; assay type: cell-based; conditions: agonist; one collective range given for all chordate RARs
T7 construct: gene rarg; LBD fused to Gal4 residues 1-147; in vitro translated for proteolysis
T7 sequence (P28699 166-476 limits assumed): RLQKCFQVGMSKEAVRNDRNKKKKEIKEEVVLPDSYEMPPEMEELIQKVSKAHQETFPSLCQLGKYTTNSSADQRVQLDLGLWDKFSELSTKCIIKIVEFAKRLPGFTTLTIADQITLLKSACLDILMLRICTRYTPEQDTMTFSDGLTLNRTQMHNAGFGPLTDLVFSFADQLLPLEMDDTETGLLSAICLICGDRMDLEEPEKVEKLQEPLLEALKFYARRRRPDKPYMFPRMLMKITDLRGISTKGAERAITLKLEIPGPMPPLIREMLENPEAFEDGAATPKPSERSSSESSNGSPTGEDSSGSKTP

zfRARα = test system: T8, zfRARα; assay: as above; assay type: cell-based, Danio rerio; conditions: agonist; one collective range given for all chordate RARs
T8 construct: gene raraa; LBD fused to Gal4 residues 1-147; in vitro translated for proteolysis

AmphiRAR [3] = target: T1, AmphiRAR; assay: as above; assay type: cell-based; set-up: LBD from Ser154 fused to Gal4 residues 1-147; conditions: agonist; one collective range given for all chordate RARs
PmRAR [4] = target: T2, PmRAR; assay: as above; assay type: cell-based; set-up: gene Pm-RAR; LBD fused to Gal4 residues 1-147; conditions: agonist; one collective range given for all chordate RARs

T1 sequence (Q8MX80 entry or part of it): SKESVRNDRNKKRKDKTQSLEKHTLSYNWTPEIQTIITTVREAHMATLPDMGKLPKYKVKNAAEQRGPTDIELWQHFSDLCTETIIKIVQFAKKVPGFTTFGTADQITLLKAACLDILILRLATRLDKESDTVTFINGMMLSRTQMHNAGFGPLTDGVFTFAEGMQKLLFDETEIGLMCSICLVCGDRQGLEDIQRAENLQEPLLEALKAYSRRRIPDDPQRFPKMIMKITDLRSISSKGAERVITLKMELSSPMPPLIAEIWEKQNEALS

Compound: CC1(C)C(=O)C(C)(C)c2cc(C(=O)Nc3ccc(C(=O)O)cc3)ccc21 [BMS753]
limited trypsin proteolysis of in vitro-translated receptor (AmphiRAR [1]): It also binds the α-specific compound (BMS753) (Figure 4F)

Compound: CC1(C)CC=C(c2ccccc2)c2cc(/C=C/c3ccc(C(=O)O)cc3Cl)ccc21 [BMS641]
limited trypsin proteolysis of in vitro-translated receptor (PmRAR [2]): both PmRAR and AncRAR are able to bind weakly the β-specific retinoid (BMS641)

EC50 (xRARβ): ~ 10^−9 to 10^−8 M
EC50 (AncRAR): ~ 10^−9 to 10^−8 M
EC50 (xRARα): ~ 10^−9 to 10^−8 M
EC50 (zfRARγ): ~ 10^−9 to 10^−8 M
EC50 (xRARγ): ~ 10^−9 to 10^−8 M
EC50 (zfRARα): ~ 10^−9 to 10^−8 M
EC50 (AmphiRAR [3]): ~ 10^−9 to 10^−8 M
EC50 (PmRAR [4]): ~ 10^−9 to 10^−8 M
Compound: CC1=C(/C=C/C(C)=C/C=C/C(C)=C/C(=O)O)C(C)(C)CCC1 [ATRA]
